# Target: T1, BRD4 (Homo sapiens, UniProt O60885+P62942)
# T1 construct: achieved via the accumulation of endogenous epigenetic machinery at the designed gRNA targeted gene locus; endogenous in cells; host or cells: HCT116 cells stably expressing dCas9 and MS2-FKBP*x2, transfected with CXCR4 or NT gRNA
# Test: BRD4 ChIP-seq, HCT116
# Assay type: cell-based
# Excerpt: Given that SLF*-CEMa facilitates gene activation via recruitment of BET proteins including BRD4, BRD4 enrichment at a specific targeted gene locus was investigated to further validate the mechanism of CEM207. Based on the alamarBlue cell viability assay performed with HEK293T and HCT116 cells, CEM207 can have different toxicity effects on different cell lines after 4 days of exposure. Specifically, HCT116 appeared to be more tolerant to CEM207 treatment. […] Based on the cell viability data, chromatin immunoprecipitation-qPCR (ChIP-qPCR) was performed in stably infected HCT116 cells. […] The signal change was measured between samples when only CEM207 or gRNA are present and those where both are present. […] To determine outlier significance, a “z-score” distribution was calculated by taking the scaled means of the x- and y-axis values and calculated P values for each point within this distribution. […]
# ChIP-seq library preparation. […] Libraries were sequenced to a depth of 30 million […] (75-bp single-end reads) on an Illumina NextSeq 500.
# ChIP-seq analyses. Reads from the sequencer were demultiplexed using bcl2fastq (v2.20.0). Sequencing adapters on reads were trimmed using cutadapt (v1.12) using options -a GATCGGAAGAGC (SEQ ID NO: 35) and—minimum-length 36 in […]. […]
# T1 sequence (P62942 2-108 limits assumed, other chains not shown): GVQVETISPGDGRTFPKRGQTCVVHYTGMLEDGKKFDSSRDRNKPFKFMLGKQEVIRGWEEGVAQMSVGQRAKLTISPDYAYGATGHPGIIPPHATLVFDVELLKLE
structure (smiles),measurement,setting,value
"CC[C@H](C(=O)N1CCCC[C@H]1C(=O)O[C@H](CCc1ccc(OC)c(OC)c1)c1cccc(OCC(=O)NCCOCCOCCNC(=O)C[C@@H]2N=C(c3ccc(Cl)cc3)c3c(sc(C)c3C)-n3c(C)nnc32)c1)c1cc(OC)c(OC)c(OC)c1 [CEM207, (R)-1-(3-((14-((S)-4-(4-Chlorophenyl)-2,3,9-trimethyl-6H-thieno[3,2-f][1,2,4]triazolo[4,3-a][1,4]diazepin-6-yl)-2,13-dioxo-6,9-dioxa-3,12-diazatetradecyl)oxy)phenyl)-3-(3,4-dimethoxyphenyl) propyl(S)-1-((S)-2-(3,4,5-trimethoxyphenyl)butanoyl) piperidine-2-carboxylate]",BRD4 ChIP-seq signal at the CXCR4 locus,25 nM CEM207 + sgCXCR4,well-defined BRD4 signal peak at the CXCR4 locus
same,BRD4 peaks having a log2 fold-change in signal less than two in either direction,"off-target assessment, CEM207 or gRNA only vs both present",96.8%

# — patent US20250177566A1, “USE OF CHEMICAL EPIGENETIC MODIFIERS TO MODULATE GENE EXPRESSION” (The University of North Carolina at Chapel Hill, priority 2022, published 2025)
